The subject of one data set is B16. Description: in vitro cytotoxicity (LC50). Conditions: read-out: LC50 (concentration lethal to 50% of cells). The class given is cell-based.
The test system of another data set is PC3 tumours. Description: PC3 prostate xenograft model. Format: in vivo, nude mice. The procedure: (§1) In the orthotopic Hep3b2.1-7 human liver cancer model, treatment of mice (n=10) began 14 days after inoculation of 2.5 × 10^6 cells. […] To initiate tumour xenografts, MDA-MB-231, PC3, Cal27 and HepG2 cells were injected s.c. into nude mice (n=8) at 4, 5, 2 and 2 × 10^7 cells ml^−1, respectively. […] In the B16F0 lung metastasis model, 2 × 10^5 cells were injected via the tail vein of C57Bl6 mice (n=8). […] Surface lung macrometastases were counted for each group (n=9) upon study termination. In the intrasplenic HT-29 xenograft model, 1 × 10^6 cells in 100 μl were injected into the spleen. […] Solid tumours were measured in two dimensions (length and width) and the tumour volume (cm^3) was calculated using the equation: V=length × width^2 × π/6. The anti-tumour activity was expressed as percent tumour growth inhibition (%TGI). Further details are available in Supplementary Methods. […]
(§2) antibody. […]
(§3) staining. For quantification, three independent visual fields (20x magnification) were chosen and positive stained spots or vessels with identifiable lumen were counted.
(§4) Angiogenesis inhibition and induction were calculated using the equations: […]
(§5) regimen both before and after tumour cell inoculation (days -6, -3, 0, +3, +6) or only after tumour cell inoculation (days 0, +3, +6). B16 cell (2x105) were inoculated via tail vein injections and mice were culled and assessed for lung metastases on day 12. […]

For the next data set, the target named is heparanase. Set-up: method as in Dredge et al, 2010. Conditions: ref Dredge et al, 2010; read-out: Ki (heparanase inhibitor); cited from earlier work.
The next data set relates to Cal27 tumours. The data set is described as follows: Cal27 head and neck xenograft model. Format: in vivo, nude mice. Conditions: 20 mg kg^−1 once-weekly s.c. On the procedure: as §1, §2, §3, §4, §5
A further data set relates to HepG2 tumours. The data set is described as follows: HepG2 liver xenograft model. Format: in vivo, nude mice. The procedure: as §1, §2, §3, §4, §5
For another data set, the system named is B16F0 lung metastases. The data set is described as follows: B16F0 experimental lung metastasis model. The class given is in vivo, C57Bl6 mice. Conditions: 20 mg kg^−1. On the procedure: as §1, §2, §3, §4, §5
The subject of data set [1] is Lewis Lung Carcinoma (LL/2) tumour angiogenesis. Description: CD31 staining of primary LL/2 tumours. The class given is in vivo, mice. The procedure: Angiogenesis in vivo was evaluated using the Angiosponge model in which subcutaneously implanted, agarose-captured FGF2 gelfoam sterile sponges (Pfizer, West Ryde, Australia) induces vascularisation over a 10-day period responsive to angiogenesis inhibition as determined by the number of vessels with identifiable lumen that stained positive for CD31/PECAM-1, an antigen present specifically on endothelial cells ([McCarty et al, 2002]). PG545 was administered s.c. on the flank distal to the AngioSponge implant. This method was also used to examine five medium-sized primary tumours from each group of Lewis Lung Carcinoma (LL/2)-bearing mice.
as §1, with “termination.” for “termination. In the intrasplenic HT-29 xenograft model, 1 × 10^6 cells in 100 μl were injected into the spleen.”, “(%TGI).” for “(%TGI). Further details are available in Supplementary Methods.”

The values that follow come from publication PMC3049593 (British Journal of Cancer, 2011).

pKi: −log10 of the molar value.

For the compound `CC(C)CCC[C@@H](C)[C@H]1CCC2C3CCC4C[C@@H](O[C@@H]5O[C@H](COS(=O)(=O)[O-])[C@@H](O[C@H]6O[C@H](COS(=O)(=O)[O-])[C@@H](O[C@H]7O[C@H](COS(=O)(=O)[O-])[C@@H](O[C@H]8O[C@H](COS(=O)(=O)[O-])[C@@H](OS(=O)(=O)[O-])[C@H](OS(=O)(=O)[O-])[C@H]8OS(=O)(=O)[O-])[C@H](OS(=O)(=O)[O-])[C@H]7OS(=O)(=O)[O-])[C@H](OS(=O)(=O)[O-])[C@H]6OS(=O)(=O)[O-])[C@H](OS(=O)(=O)[O-])[C@H]5OS(=O)(=O)[O-])CC[C@]4(C)C3CC[C@@]21C.[Na+].[Na+].[Na+].[Na+].[Na+].[Na+].[Na+].[Na+].[Na+].[Na+].[Na+].[Na+].[Na+]` (some centres unmarked) [PG545], the CC50 in the data set on B16 is > 200000 nM. Also, the TGI in the data set with PC3 tumours (20 mg kg^−1 once-weekly s.c.) is 74%; in the data set on PC3 tumours (20 mg kg^−1 twice-weekly s.c.) it was 83%; with Cal27 tumours, 57%; in the data set with HepG2 tumours (20 mg kg^−1 once-weekly s.c.) it was 55%; in the data set with HepG2 tumours (20 mg kg^−1 twice-weekly s.c.) it was 45%. The negative logarithm of the Ki (pKi) at heparanase was 8.22. The “TGI (lung metastases)” value in the data set on B16F0 lung metastases (days 0, +3, +6) worked out at 62%; in the data set with B16F0 lung metastases (days −6, −3, 0, +3, +6), 99%. The results for the “decrease in CD31 endothelial staining in tumours” value in data set [1] (20 mg kg^−1 once-weekly s.c.) and in data set [1] (40 mg kg^−1 once-weekly s.c.) were 30% and 22%, respectively.
